Data from patent US20210353749A1, “GUANABENZ AS AN ADJUVANT FOR IMMUNOTHERAPY” (UNIVERSITÉ CATHOLIQUE DE LOUVAIN, priority 2018, published 2021).

Assays:
TiRP tumor = assay: TiRP melanoma model, drug alone; type: in vivo, mouse; details: 5 mg/kg i.p. daily from tumor size around 400 mm^3 (day 0) to day 12, vs vehicle; FIG. 3
Source text: TiRP mice: TiRP mice have been created by crossing Ink4a/Arf^flox/flox mice with mice carrying a transgenic construct controlled by the tyrosinase promoter and driving the expression of H-Ras^12V and Trap1a which encodes a MAGE-type tumor antigen P1A; the promoter is separated from the coding region by a stop cassette made of a floxed self-deleting CreER (Huijbers et al., 2006, Cancer Res 66, 3278-3286). Those mice were backcrossed to a B10.D2 background and bred to homozygosity. TCRP1A mice heterozygous for the H-2Ld/P1A35-43-specific TCR transgene were kept on the B10.D2; Rag1^−/− background (Shanker et al., 2004, J Immunol 172, 5069-5077). All mice used in this study were produced under specific pathogen free (SPF) conditions at the animal facility of the Ludwig Institute for Cancer Research. All the rules concerning animal welfare have been respected according to the 2010/63/EU Directive. […]
A fresh solution of 40H-Tamoxifen was prepared by dissolving 40H-Tamoxifen (Imaginechem) in 100% ethanol and mineral oil (ratio 1:9) followed by 30-min sonication, and injected subcutaneously (2 mg/200 μL per mouse) in the neck area of gender-matched 7 weeks old TiRP mice. Tumor appearance was monitored daily and tumors were measured three times/week. Tumor volume (in mm^3) was calculated by the following formula: Volume=width^2×length/2. […]

Mouse NK cells = assay: In vitro NK cell function (CD107a degranulation); type: cell-based; details: guanabenz 20 μM, 16 hours, RMA-S target cells; FIG. 10
Experimental: Mouse NK cells: murine NK cells were isolated from mouse splenocytes using anti-CD49b magnetic beads. Murine NK cells were isolated from mouse splenocytes using anti-CD49b magnetic beads and were activated in vitro by co-incubation with irradiated RMA-S cells. 4 days after activation, they were collected and plated at 50,000 cells per well in a 96 U plate with 20 μM of guanabenz and incubated at 37° C. overnight prior to their use in the assay on the next day. On the day of the assay, the culture supernatant was removed from the cells and the cells were washed once with complete medium to remove the drug. The target cells (RMA-S cells) were added to the wells at a ratio of 1:1. Control wells containing either only NK cells or target cells were also included for each plate. CD107a-APC was added to each well at the same time as addition of the target cells. The plate was then incubated at 37° C. for 90 minutes. At the end of the incubation period the cells were harvested and washed once with PBS. They were stained with anti-mouse CD49b-PE antibody for 15 minutes. The cells were then washed and resuspended in PBS and analyzed using FACS Fortessa flow cytometer.

[1] = system: P1A-antigen specific CD8+ T cells; assay: Immunization with irradiated L1210-P1A-B7.1 tumor cells; type: in vivo, DBA/2 mice; details: 100 μg (5 mg/kg) guanabenz with vaccine, vs negative control and immunization alone
Experimental: Immunization with irradiated L1210-P1A-B7.1 tumor cells: DBA/2 mice received a vaccine consisting of 1 million irradiated L1210-P1A-B7.1 cells expressing the P1A antigen either alone or with 100 μg (5 mg/kg) guanabenz. When administered, guanabenz was given 1 hour before the immunization and daily after the immunization.
Tetramer staining: one week after the immunization, the spleen of each mouse was collected. Isolated splenocytes from the immunized mice were cultured and restimulated with L1210-P1A-B7.1 cells at a ratio of 1:1. Four days after restimulation, P1A-antigen specific CD8^+ T cells were stained with PE-conjugated P1A tetramer and APC-conjugated anti-CD8 antibody.
Interferon gamma secretion: one week after the immunization, the spleen of each mouse was collected. Splenocytes from the immunized mice were restimulated with L1210-P1A-B7.1 cells at a ratio of 1:1. Four days after restimulation, the splenocytes were collected and plated at 50,000 cells per well in 96 U plate. L1210-P1A-B7.1 cells were added to each well as target cells at a ratio of 1:1. The plate was then incubated at 37° C. overnight. At the end of the incubation, the supernatant from the cells were collected and the amount of secreted IFNγ was measured by ELISA according to the manufacturer's instruction (R&D). […]

## NC(N)=N/N=C/c1c(Cl)cccc1Cl [guanabenz, 2-[(E)-(2,6-dichlorophenyl)methylideneamino]guanidine]
TiRP tumor
  TiRP tumor growth: inhibitory effect
Mouse NK cells
  NK cell degranulation (FACS detection of CD107a): significantly increased
[1]; activation with L1210-P1A-B7.1 cells, FIG. 7B
  splenocyte IFNγ secretion (ELISA): significant increase
[1]; splenocytes one week after immunization, FIG. 7A
  percentage of P1A-antigen specific CD8+ T cells among total CD8+ T cells after restimulation with the P1A-antigen: significant increase
